Structures can show the parent of a compound that is named as a salt.
Columns and labels:
[1] = cited from earlier work; for SOLUBILITY (parts H2O): Table 1, numeric; for SOLUBILITY (in words): Table 1, water; for SOL. IN PARTS H2O: Table 2
[2] = system: anti-digoxin antibody; assay: Enzyme immunoassay for digoxin; type: binding, rabbit
Source text: An enzyme-labelled digoxin assay using the method of the present invention is adapted from a commercial digoxin kit (Immunotech, Allston, Mass.). The only changes in reagents are the inclusion of 20% sorbitol in the color developer solution, and the substitution of 50 microliters of Tachisorb-R (Behring Diagnostics, La Jolla, Calif.) for the 500 microliters of precipitating solution (goat-anti rabbit IgG) provided with the kit.
In two mL, screw-top microcentrifuge tubes (Sarstedt, Princeton, N.J.), 1 mL of sorbitol-color developer is dispensed, then overlaid with 0.4 mL of dibutyl phthalate. A 200 microliter assay mixture is prepared by adding 100 microliters of Tachisorb-R, 25 microliters of digoxin-enzyme (alkaline phosphatase) conjugate, 25 microliters of sample (serum-based standards), and 50 microliters of antibody solution. The assay is incubated at room temperature for 15 minutes, centrifuged two minutes at 10,000×g, and further incubated one hour for color development.
Color is measured at 400 nm in a Shimadzu Model UV-160 spectrophotometer. Because of the opacity of the polypropylene tubes, results for each tube are corrected for nonspecific absorbance at 500 nm.

[3] = system: antisera to synthetic hTGF-a (1-50); assay: RIA for human TGF-a using antisera recognizing the complete, bioactive synthetic hormone; type: binding, rabbit
Experimental: (D) RIA for Human TGF-a Using Antisera Recognizing the Complete, Bioactive Synthetic Hormone Synthesis of hTGF-a (1-50) Peptide and Immunization:
The sequence of human TGF-a as determined by DeRynck et al. (Cell 38:287-297, 1985) was used to synthesize the low molecular weight form of the hormone (residues 1-50) using an automated instrument (Biosearch). The resultant peptide was used to immunize rabbits repeatedly using 0.5 mg of peptide at multiple sites.
The assay used reference standards and radio-iodinated tracer prepared from purified, bioactive synthetic rat TGF-alpha (Peninsula Laboratories, Belmont, Calif.). Label cocktail was prepared by mixing, in 1.5 L total volume, 300 L 10×buffer (0.5 M Hepes, 2 mg/L BSA, 0.2% sodium azide), 600 L 10% nonidet P-40 (Shell Oil Co.), 580 L distilled water, and 30 L of labeled peptide (rTGF-a, 800,000 CPM). The antibody suspension was prepared essentially as described in (A) above. To each 0.4 L tube containg 0.25-0.3 L cushions of butyl phthalate was added 25 L of label cocktail, 50 L of sample, and 25 L of antibody suspension. Where indicated, 10 L of 1M DTT (freshly dissolved in 0.5M sodium bicarbonate) was added to each assay mixture. After mixing, the tubes were incubated overnight at 4° C., then processed as described in (A) except that the detection instrument was a gamma counter (Abbott Model 200).

[4] = system: anti-fragment antisera (rat TGF-a c-terminal peptide); assay: TGF-a RIA: predispensed reactants & methyl cinnamate cushions; type: binding, rabbit
Experimental: (§1) All assays employed as assay vessels 0.4 L microcentrifuge tubes containing 0.25-0.3 L of cushion material. Labeled peptide was produced by chloramine Tiodination (specific activity ranged from 200-500 Ci/g). Unless otherwise specified, all solid phases were prepared using S. aureus suspensions. Centrifugations were for 30-60 seconds in a microcentrifuge at approximately 10,000×g.
(§2) (B) RIA Using Anti-Fragment Antisera and Bioactive Syntheticpeptide as Tracer and Reference Standard, with Methylcinnamate Cushions and Assay Reactants Predispensed.
(§3) Trans-methyl cinnamate (Table 1, item 11, Aldrich Chemical Co., St. Louis, Mo.) was melted by brief heating in a microwave oven just prior to dispensing into assay vessels. The cushion solidified spontaneously at room temperature. The solid phase was prepared as in (A) above in double strength assay buffer (including 4% NP-40 nonionic detergent). This suspension was stable at 4° C. for at least one year. Label cocktail (1.5 L) was prepared using 0.3 L 10×assay buffer (minus nonionic detergent), 0.6 L 10% NP-40, 0.58 L distilled water, and 30 L label concentrate (600,000 CPM) prepared from bioactive synthetic rat TGF-alpha (res. 1-50).
(§4) Into each assay was loaded 50 L of reference standard sample (bioactive, synthetic rat TGF-alpha, res. 1-50), 25 L of label cocktail, followed by 25 L of solid phase suspension. Where indicated, all assay reactants were predispensed and equilibrated for at least 3 days at 4 C prior to initiation of the assay by sample addition and mixing. After the indicated incubation periods, assay vessels were centrifuged and counted using radiation shields (FIG. 3, lacking disk 52) in an gamma counter (Abbott Model 200).

[5] = system: anti-fragment antisera (rat TGF-a c-terminal peptide); assay: TGF-a RIA: bioactive peptides & methyl cinnamate cushions; type: binding, rabbit
Experimental: as §1, §2, §3, §4
Two temperature and mixing treatments were compared with four incubation times. One treatment consisted of incubating at 32° C., just below the melting temperature of the cushion, and mixing at 15 minute intervals. The second treatment consisted of incubating at 40° C., above the melting temperature of the cushion, with mixing only at initiation of incubation (prior to warming). Both assays yielded low nonspecific binding, high specific binding, and high competition with reference standards, even after only 30 minutes of incubation.

[6] = REDUCED WITH DTT, 1.25 nM in assay

## CCCCOC(=O)C=Cc1ccccc1 [BUTYL CINNAMATE]
[1]
  SOLUBILITY (parts H2O): 200 parts H2O

## CCCCOC(=O)CC(O)(CC(=O)OCCCC)C(=O)OCCCC [BUTYL CITRATE]
[1]
  SOLUBILITY (in words): INSOL

## CCCCOC(=O)c1ccccc1C(=O)OCCCC [DIBUTYL PHTHALATE]
[1]
  SOLUBILITY (parts H2O): 2500 parts H2O

## CCOC(=O)[C@H](O)[C@@H](O)C(=O)OCC [DIETHYL L-TARTRATE]
[1]
  SOLUBILITY (in words): slightly

## CCOC(=O)/C=C\C(=O)OCC [DIETHYL MALEATE]
[1]
  SOLUBILITY (in words): INSOL

## CCOC(=O)CC(=O)OCC [DIETHYL MALONATE]
[1]
  SOLUBILITY (parts H2O): 50 parts H2O

## COC(=O)C(=O)OC [DIMETHYL OXALATE]
[1]
  SOLUBILITY (parts H2O): 17 parts H2O

## COC(=O)c1ccccc1C(=O)OC [DIMETHYL PHTHALATE]
[1]
  SOLUBILITY (parts H2O): 232 parts H2O

## COC(=O)CCC(=O)OC [DIMETHYL SUCCINATE]
[1]
  SOLUBILITY (parts H2O): 120 parts H2O

## CCOC(=O)CC(C)=O [ETHYL ACETOACETATE]
[1]
  SOLUBILITY (parts H2O): 35 parts H2O

## CCOC(=O)CC(=O)c1ccccc1 [ETHYL BENZOYLACETATE]
[1]
  SOLUBILITY (in words): INSOL

## CCOC(=O)C=Cc1ccccc1 [ETHYL CINNAMATE]
[1]
  SOLUBILITY (in words): INSOL

## CCOC(=O)CC(=O)C(=O)OCC [ETHYL OXALACETATE]
[1]
  SOLUBILITY (in words): INSOL

## CCOC(=O)c1ccccc1O [ETHYL SALICYLATE]
[1]
  SOLUBILITY (in words): SLIGHTLY

## [Br-].[Li+] [LITHIUM BROMIDE]
[1]
  SOL. IN PARTS H2O: .6 PARTS H2O

## [Cl-].[Li+] [LITHIUM CHLORIDE]
[1]
  SOL. IN PARTS H2O: 1.3 PARTS H2O

## COC(=O)c1ccccc1 [METHYL BENZOATE]
[1]
  SOLUBILITY (in words): INSOL

## COC(=O)/C=C/c1ccccc1 [METHYL CINNAMATE]
[1]
  SOLUBILITY (in words): ALMOST INSOL

## COC(=O)c1ccco1 [METHYL FUROATE]
[1]
  SOLUBILITY (in words): SLIGHTLY

## COC(=O)c1ccccc1O [METHYL SALICYLATE]
[1]
  SOLUBILITY (parts H2O): 1500 parts H2O

## CC(O)CO (stereo not drawn) [PROPYLENE GLYCOL]
[1]; Table 2 comment
  miscibility: MISC WITH H2O, CHCL3

## C[C@H]1O[C@@H](O[C@H]2[C@@H](O)C[C@H](O[C@H]3[C@@H](O)C[C@H](O[C@H]4CC[C@@]5(C)[C@H](CC[C@@H]6[C@@H]5C[C@@H](O)[C@]5(C)[C@@H](C7=CC(=O)OC7)CC[C@]65O)C4)O[C@@H]3C)O[C@@H]2C)C[C@H](O)[C@@H]1O [digoxin]
[2]; sample 1.0
  ABSORBANCE AT 400 nm (corrected): 150
[2]; sample 2.0
  ABSORBANCE AT 400 nm (corrected): 100
[2]; sample 4.0
  ABSORBANCE AT 400 nm (corrected): 80

## BIOLOGICAL TGFALPHA: BIOLOGICAL TGFALPHA, PARTIALLY PURIFIED FROM CULTURE FLUIDS (A375 CELLS)
[3]; [6]
  PERCENTAGE OF MAXIMAL BINDING, corrected for nonspecific binding: 63.3%
[3]; UNREDUCED, 1.25 nM in assay
  PERCENTAGE OF MAXIMAL BINDING, corrected for nonspecific binding: 89.7%

## RTGF, BIOACTIVE: purified, bioactive synthetic rat TGF-alpha (Peninsula Laboratories)
[3]; REDUCED WITH DTT, 0.15 nM in assay
  PERCENTAGE OF MAXIMAL BINDING, corrected for nonspecific binding: 93.8%
[3]; REDUCED WITH DTT, 0.32 nM in assay
  PERCENTAGE OF MAXIMAL BINDING, corrected for nonspecific binding: 87.1%
[3]; REDUCED WITH DTT, 0.62 nM in assay
  PERCENTAGE OF MAXIMAL BINDING, corrected for nonspecific binding: 79.9%
[3]; [6]
  PERCENTAGE OF MAXIMAL BINDING, corrected for nonspecific binding: 74.4%
[3]; REDUCED WITH DTT, 2.50 nM in assay
  PERCENTAGE OF MAXIMAL BINDING, corrected for nonspecific binding: 64.9%
[3]; REDUCED WITH DTT, 5.00 nM in assay
  PERCENTAGE OF MAXIMAL BINDING, corrected for nonspecific binding: 47.3%
[3]; UNREDUCED, 0.15 nM in assay
  PERCENTAGE OF MAXIMAL BINDING, corrected for nonspecific binding: 83.2%
[3]; UNREDUCED, 0.32 nM in assay
  PERCENTAGE OF MAXIMAL BINDING, corrected for nonspecific binding: 77.3%
[3]; UNREDUCED, 0.62 nM in assay
  PERCENTAGE OF MAXIMAL BINDING, corrected for nonspecific binding: 68.5%
[3]; UNREDUCED, 1.25 nM in assay
  PERCENTAGE OF MAXIMAL BINDING, corrected for nonspecific binding: 58.5%
[3]; UNREDUCED, 2.50 nM in assay
  PERCENTAGE OF MAXIMAL BINDING, corrected for nonspecific binding: 54.0%
[3]; UNREDUCED, 5.00 nM in assay
  PERCENTAGE OF MAXIMAL BINDING, corrected for nonspecific binding: 45.7%

## synthetic rat TGF-alpha: bioactive, synthetic rat TGF-alpha, res. 1-50
[4]; 2.5 nM sample competition, total CPM = 7872
  label bound, CPM: 642 CPM
[4]; 2.5 nM sample, 120 minutes, 37 C
  % OF MAX. BOUND: 48.6%
[4]; 2.5 nM sample, 120 minutes, 37 C, N = 6
  LABEL BOUND: 8.2%
[5]; 30 minutes, 32 C
  % bound with 0.3 nM sample: 21.9%
  % bound with 10 nM sample: 5.6%
[5]; 30 minutes, 40 C
  % bound with 0.3 nM sample: 23.8%
  % bound with 10 nM sample: 6.9%
[5]; 60 minutes, 32 C
  % bound with 0.3 nM sample: 25.2%
  % bound with 10 nM sample: 6.2%
[5]; 60 minutes, 40 C
  % bound with 0.3 nM sample: 29.4%
  % bound with 10 nM sample: 7.1%
[5]; 90 minutes, 32 C
  % bound with 0.3 nM sample: 26.2%
  % bound with 10 nM sample: 6.4%
[5]; 90 minutes, 40 C
  % bound with 0.3 nM sample: 32.9%
  % bound with 10 nM sample: 7.6%
[5]; 120 minutes, 32 C
  % bound with 0.3 nM sample: 25.6%
  % bound with 10 nM sample: 6.1%
[5]; 120 minutes, 40 C
  % bound with 0.3 nM sample: 35.8%
  % bound with 10 nM sample: 7.6%

Reference: patent US6121055A, “Methods and devices for conducting specific binding assays” (priority 1995, dated 2000)
